# Laboratory results: US7973033B2, “Multi-cyclic cinnamide derivatives” (Eisai R&D Management Co., Ltd., priority 2006, dated 2011)
# System: Aβ 42 production
# Assay: Quantification of Aβ Peptide in Culture of Neurons from Rat Fetus Brain
# Format: cell-based
# Details: Neuron, 72 h; rat primary neuronal culture (cerebral cortex, embryonic day 18 Wistar rats); medium collected three days after addition of the compound; Aβ ELISA; read-out: Effect of reducing Aβ 42 production IC50
# Experimental: Quantification of Aβ Peptide in Culture of Neurons from Rat Fetus Brain
# (1) Rat Primary Neuronal Culture
# Primary neuronal cultures were prepared from the cerebral cortex of embryonic day 18 Wistar rats (Charles River Japan, Yokohama, Japan). Specifically, the embryos were aseptically removed from pregnant rats under ether anesthesia. The brain was isolated from the embryo and immersed in an ice-cold L-15 medium (Invitrogen Corp. Cat #11415-064, Carlsbad, Calif., USA, or SIGMA L1518, for example). The cerebral cortex was collected from the isolated brain under a stereoscopic microscope. The cerebral cortex fragments collected were enzymatically treated in an enzyme solution containing 0.25% trypsin (Invitrogen Corp. Cat #15050-065, Carlsbad, Calif., USA) and 0.01% DNase (Sigma D5025, St. Louis, Mo., USA) at 37° C. for 30 minutes to disperse the cells. Here, the enzymatic reaction was stopped by adding inactivated horse serum to the solution. The enzymatically treated solution was centrifuged at 1,500 rpm for five minutes to remove the supernatant. 5 to 10 ml of a medium was added to the resulting cell mass. Neurobasal medium (Invitrogen Corp. Cat #21103-049, Carlsbad, Calif., USA) supplemented with 2% B27 supplement (Invitrogen Corp. Cat #17504-044, Carlsbad, Calif., USA), 25 μM 2-mercaptoethanol (2-ME, WAKO Cat #139-06861, Osaka, Japan), 0.5 mM L-glutamine (Invitrogen Corp. Cat #25030-081, Carlsbad, Calif., USA), and Antibiotics-Antimycotics (Invitrogen Corp. Cat #15240-062, Carlsbad, Calif., USA) was used as the medium (Neurobasal/B27/2-ME). However, the above Neurobasal medium not supplemented with 2-ME (Neurobasal/B27) was used for the assay. The cells were redispersed by mild pipetting of the cell mass to which the medium was added. The cell dispersion was filtered through a 40-μm nylon mesh (Cell Strainer, Cat #35-2340, Becton Dickinson Labware, Franklin Lakes, N.J., USA) to remove the remaining cell mass, and thus a neuronal cell suspension was obtained. The neuronal cell suspension was diluted with the medium and then plated in a volume of 100 μl/well at an initial cell density of 5×10^5 cells/cm^2 in a 96-well polystyrene culture plate pre-coated with poly-L or D-lysine (Falcon Cat #35-3075, Becton Dickinson Labware, Franklin Lakes, N.J., USA coated with poly-L-lysine using the method shown below, or BIOCOAT™ cell environments Poly-D-lysine cell ware 96-well plate, Cat #35-6461, Becton Dickinson Labware, Franklin Lakes, N.J., USA). Poly-L-lysine coating was carried out as follows. 100 μg/ml of a poly-L-lysine (SIGMA P2636, St. Louis, Mo., USA) solution was aseptically prepared with a 0.15 M borate buffer (pH 8.5). 100 μl/well of the solution was added to the 96-well polystyrene culture plate and incubated at room temperature for one or more hours or at 4° C. overnight or longer. The coated 96-well polystyrene culture plate was washed with sterile water four or more times, and then dried or rinsed with, for example, sterile PBS or medium, and used for cell plating. The plated cells were cultured in the culture plate at 37° C. in 5% CO2-95% air for one day. Then, the total amount of the medium was replaced with a fresh Neurobasal™/B27/2-ME medium, and then the cells were cultured for further three days.
# The drug was added to the culture plate on Day 4 of culture as follows. The total amount of the medium was removed from the wells, and 180 μl/well of Neurobasal medium not containing 2-ME and containing 2% B-27 (Neurobasal/B27) was added thereto. A solution of the test compound in dimethyl sulfoxide (hereinafter abbreviated as DMSO) was diluted with Neurobasal/B27 at 10-fold of the final concentration. 20 μl/well of the dilution was added to and sufficiently mixed with the medium. The final DMSO concentration was 1% or less. Only DMSO was added to the control group.
# The cells were cultured for three days after addition of the compound, and the total amount of the medium was collected. […]
row,SMILES,IC50 [nM]
1,"COc1cc(/C=C/c2nc(C(C)c3ccccc3)n(C)n2)ccc1-n1cnc(C)c1 (stereo not drawn) [Example 45, 3-{(E)-2-[3-methoxy-4-(4-methyl-1H-imidazol-1-yl)phenyl]vinyl}-1-methyl-5-(1-phenylethyl)-1H-[1,2,4]triazole]",85
2,"COc1cc(/C=C/c2nc3n(n2)CCC3c2cc(F)c(F)c(F)c2)ccc1-n1cnc(C)c1 (single isomer, unassigned) [Example 113, (−)-2-{(E)-2-[3-methoxy-4-(4-methyl-1H-imidazol-1-yl)phenyl]vinyl}-7-(3,4,5-trifluorophenyl)-6,7-dihydro-5H-pyrrolo[1,2-b][1,2,4]triazole]",32
3,"COC(=O)c1[nH]c(/C=C/c2ccc(-n3cnc(C)c3)c(OC)c2)nc1-c1ccc(F)cc1 [Example 6, methyl 5-(4-fluorophenyl)-2-{(E)-2-[3-methoxy-4-(4-methyl-1H-imidazol-1-yl)phenyl]vinyl}-1H-imidazole-4-carboxylate]",60
4,"COc1cc(/C=C/c2nnc(C(C)(C)c3ccccc3)[nH]2)ccc1-n1cnc(C)c1 [Example 49, 3-{(E)-2-[3-methoxy-4-(4-methyl-1H-imidazol-1-yl)phenyl]vinyl}-5-(1-methyl-1-phenylethyl)-4H-[1,2,4]triazole]",63
5,"COc1cc(/C=C2\CCCn3c(-c4ccc(F)cc4)cnc32)ccc1-n1cnc(C)c1 [Example 18, 3-(4-fluorophenyl)-8-{1-[3-methoxy-4-(4-methyl-1H-imidazol-1-yl)phenyl]-(E)-methylidene}-5,6,7,8-tetrahydroimidazo[1,2-a]pyridine]",170
6,"COc1cc(/C=C/c2nc3n(n2)CCO[C@H]3c2ccc(C)cc2)ccc1-n1cnc(C)c1 (single isomer, unassigned) [Example 138, (−)-2-{(E)-2-[3-methoxy-4-(4-methyl-1H-imidazol-1-yl)phenyl]vinyl}-8-p-tolyl-5,6-dihydro-8H-[1,2,4]triazolo[5,1-c][1,4]oxazine]",47
7,"COc1cc(/C=C/c2nc(-c3ccc(F)cc3)c3n2CCOC3)ccc1-n1cnc(C)c1 [Example 13, 1-(4-fluorophenyl)-3-{(E)-2-[3-methoxy-4-(4-methyl-1H-imidazol-1-yl)phenyl]vinyl}-5,6-dihydro-8H-imidazo[5,1-c][1,4]oxazine]",170
8,"COc1cc(/C=C/c2nc(-c3ccccc3)cn2C)ccc1-n1cnc(C)c1 [Example 5, 2-{(E)-2-[3-methoxy-4-(4-methyl-1H-imidazol-1-yl)phenyl]vinyl}-1-methyl-4-phenyl-1H-imidazole]",18
9,"COc1cc(/C=C/c2nc3n(n2)CCCC3c2cc(F)c(F)c(F)c2)ccc1-n1cnc(C)c1 (single isomer, unassigned) [Example 54, (−)-2-{(E)-2-[3-methoxy-4-(4-methyl-1H-imidazol-1-yl)phenyl]vinyl}-8-(3,4,5-trifluorophenyl)-5,6,7,8-tetrahydro[1,2,4]triazolo[1,5-a]pyridine]",14
10,"COc1cc(/C=C2\CCCn3c2nc(CO)c3-c2ccc(F)cc2)ccc1-n1cnc(C)c1 [Example 23, {3-(4-fluorophenyl)-8-{1-[3-methoxy-4-(4-methyl-1H-imidazol-1-yl)phenyl]-(E)-methylidene}-5,6,7,8-tetrahydroimidazo[1,2-a]pyridin-2-yl}methanol]",60
11,"COc1cc(/C=C/c2nc3n(n2)CCC[C@@H]3c2ccc(Cl)cc2)ccc1-n1cnc(C)c1 (single isomer, unassigned) [Example 149, (−)-8-(4-chlorophenyl)-2-{(E)-2-[3-methoxy-4-(4-methyl-1H-imidazol-1-yl)phenyl]vinyl}-5,6,7,8-tetrahydro[1,2,4]triazolo[1,5-a]pyridine]",21
12,"Cc1cn(-c2ccc(/C=C/c3nc4n(n3)CCCC4c3cc(F)c(F)c(F)c3)cc2F)cn1 (single isomer, unassigned) [Example 62, (−)-2-{(E)-2-[3-fluoro-4-(4-methyl-1H-imidazol-1-yl)phenyl]vinyl}-8-(3,4,5-trifluorophenyl)-5,6,7,8-tetrahydro[1,2,4]triazolo[1,5-a]pyridine]",23
13,"COc1cc(/C=C/c2nc(-c3ccc(F)cc3)c[nH]2)ccc1-n1cnc(C)c1 [Example 1, 4-(4-fluorophenyl)-2-{(E)-2-[3-methoxy-4-(4-methyl-1H-imidazol-1-yl)phenyl]vinyl}-1H-imidazole]",45
14,"COc1cc(/C=C/c2nc3n(n2)CCCC3c2ccc(F)cc2)ccc1-n1cnc(C)c1 (single isomer, unassigned) [Example 52, (−)-8-(4-fluorophenyl)-2-{(E)-2-[3-methoxy-4-(4-methyl-1H-imidazol-1-yl)phenyl]vinyl}-5,6,7,8-tetrahydro[1,2,4]triazolo[1,5-a]pyridine]",14
15,"COC(=O)c1c(-c2ccc(F)cc2)nc2n1CCC/C2=C\c1ccc(-n2cnc(C)c2)c(OC)c1 [Example 22, methyl 2-(4-fluorophenyl)-8-{1-[3-methoxy-4-(4-methyl-1H-imidazol-1-yl)phenyl]-(E)-methylidene}-5,6,7,8-tetrahydroimidazo[1,2-a]pyridine-3-carboxylate]",170
16,"COc1cc(/C=C/c2nc3n(n2)CCC[C@@H]3c2cc(F)c(F)c(F)c2)c(F)cc1-n1cnc(C)c1 (single isomer, unassigned) [Example 69, (−)-2-{(E)-2-[2-fluoro-5-methoxy-4-(4-methyl-1H-imidazol-1-yl)phenyl]vinyl}-8-(3,4,5-trifluorophenyl)-5,6,7,8-tetrahydro[1,2,4]triazolo[1,5-a]pyridine]",74
17,"COc1cc(/C=C/c2nnc(C(C)c3ccc(F)cc3)[nH]2)ccc1-n1cnc(C)c1 (single isomer, unassigned) [Example 36, (+)-3-[1-(4-fluorophenyl)ethyl]-5-{(E)-2-[3-methoxy-4-(4-methyl-1H-imidazol-1-yl)phenyl]vinyl}-4H-[1,2,4]triazole]",34
18,"COc1cc(/C=C/c2nc(-c3ccc(F)cc3)c3n2CCNC3=O)ccc1-n1cnc(C)c1 [Example 10, 1-(4-fluorophenyl)-3-{(E)-2-[3-methoxy-4-(4-methyl-1H-imidazol-1-yl)phenyl]vinyl}-6,7-dihydro-5H-imidazo[1,5-a]pyrazin-8-one]",130
19,"COc1cc(/C=C/c2nnc(C(C)c3ccc(F)cc3)[nH]2)ccc1-n1cnc(C)c1 (racemic) [Example 31, 3-[1-(4-fluorophenyl)ethyl]-5-{(E)-2-[3-methoxy-4-(4-methyl-1H-imidazol-1-yl)phenyl]vinyl}-4H-[1,2,4]triazole]",33
20,"COc1cc(/C=C/c2nc3n(n2)CCC[C@]3(O)c2ccc(C)cc2)ccc1-n1cnc(C)c1 (single isomer, unassigned) [Example 155, (−)-2-{(E)-2-[3-methoxy-4-(4-methyl-1H-imidazol-1-yl)phenyl]vinyl}-8-p-tolyl-5,6,7,8-tetrahydro[1,2,4]triazolo[1,5-a]pyridin-8-ol]",39
21,"COc1cc(/C=C/c2nc3n(n2)CCCC3c2cccc3ccccc23)ccc1-n1cnc(C)c1 (single isomer, unassigned) [Example 130, (+)-2-{(E)-2-[3-methoxy-4-(4-methyl-1H-imidazol-1-yl)phenyl]vinyl}-8-naphthalen-1-yl-5,6,7,8-tetrahydro[1,2,4]triazolo[1,5-a]pyridine]",13
